Experiments:
[1] = molecular target: GDP-bound NRAS wild-type protein (Homo sapiens, UniProt P01111); test: Binding to NRAS by surface plasmon resonance (SPR), Single Cycle Kinetics; conditions: KD ratio NRAS/KRAS, class symbols
[2] = molecular target: GDP-bound HRAS wild-type protein (Homo sapiens, UniProt P01112); test: Binding to HRAS by surface plasmon resonance (SPR), Single Cycle Kinetics; conditions: KD ratio HRAS/KRAS, class symbols
Sequence of GDP-bound HRAS wild-type protein (P01112 whole entry): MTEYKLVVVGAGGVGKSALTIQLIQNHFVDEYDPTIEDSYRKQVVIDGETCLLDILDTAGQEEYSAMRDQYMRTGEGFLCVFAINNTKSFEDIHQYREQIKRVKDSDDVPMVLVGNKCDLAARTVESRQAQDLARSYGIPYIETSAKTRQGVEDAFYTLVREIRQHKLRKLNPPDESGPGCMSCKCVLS

Sequence of GDP-bound NRAS wild-type protein (P01111 whole entry): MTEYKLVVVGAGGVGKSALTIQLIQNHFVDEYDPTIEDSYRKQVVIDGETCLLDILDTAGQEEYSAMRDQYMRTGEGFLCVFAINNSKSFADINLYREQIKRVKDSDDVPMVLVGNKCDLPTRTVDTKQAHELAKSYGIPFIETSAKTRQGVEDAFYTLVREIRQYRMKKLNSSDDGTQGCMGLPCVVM

SMILES | NRAS/KRAS (ratio of KD value with respect to GDP-bound NRAS wild-type protein to KD value with respect to KRAS) [1] | HRAS/KRAS (ratio of KD value with respect to GDP-bound HRAS wild-type protein to KD value with respect to KRAS) [2]
CCO[C@@H]1C[C@H]2C(=O)NC3(CC(C)(C)C3)C(=O)N(C)[C@@H](C3CCCC3)C(=O)N(C)[C@H](C(=O)N(C)CC)CC(=O)N(C)[C@@H](COC)C(=O)N[C@@H]([C@@H](C)CC)C(=O)N(C)CC(=O)N(C)[C@H]3C/C=C\CCN(C3=O)[C@@H](Cc3ccc(C(F)(F)F)cc3)C(=O)N(C)CC(=O)N[C@@H](CCc3ccc(Cl)c(Cl)c3)C(=O)N2C1 [PP2835] | A (a compound having 10 or more and less than 20 is denoted as A) | A (a compound having 10 or more and less than 20 is denoted as A)
CCO[C@@H]1C[C@H]2C(=O)NC3(CC(C)(C)C3)C(=O)N(C)[C@@H](C3CCCC3)C(=O)N(C)[C@H](C(=O)N(C)CC)CC(=O)N(C)[C@@H](COC)C(=O)N[C@@H]([C@@H](C)CC)C(=O)N(C)CC(=O)N(C)[C@H]3C/C=C\CCN(C3=O)[C@@H](Cc3ccc(C(F)(F)F)cc3)C(=O)N(C)CC(=O)N[C@@H](CCc3ccc(C(F)(F)F)c(Cl)c3)C(=O)N2C1 [PP2836] | A (a compound having 10 or more and less than 20 is denoted as A) | A (a compound having 10 or more and less than 20 is denoted as A)
CCO[C@@H]1C[C@H]2C(=O)NC3(CCCC3)C(=O)N(C)[C@@H](C3CCCC3)C(=O)N(C)[C@H](C(=O)N(C)C)CC(=O)N(C)[C@@H](CC(C)C)C(=O)N[C@@H]([C@@H](C)CC)C(=O)N(C)CC(=O)N(C)[C@H]3C/C=C\CCN(C3=O)[C@@H](Cc3ccc(C(F)(F)F)cc3)C(=O)N(C)CC(=O)N[C@@H](CCc3ccc(Cl)c(Cl)c3)C(=O)N2C1 [PP2837] | AA (a compound having 20 or more is denoted as AA) | A (a compound having 10 or more and less than 20 is denoted as A)
CCO[C@@H]1C[C@H]2C(=O)NC3(CCCC3)C(=O)N(C)[C@@H](C3CCCC3)C(=O)N(C)[C@H](C(=O)N(C)C)CC(=O)N(C)[C@@H](CC(C)C)C(=O)N[C@@H]([C@@H](C)CC)C(=O)N(C)CC(=O)N(C)[C@H]3C/C=C\CCN(C3=O)[C@@H](Cc3ccc(C(F)(F)F)cc3)C(=O)N(C)CC(=O)N[C@@H](CCc3ccc(C(F)(F)F)c(Cl)c3)C(=O)N2C1 [PP2838] | AA (a compound having 20 or more is denoted as AA) | A (a compound having 10 or more and less than 20 is denoted as A)
CCCC[C@H]1C(=O)N[C@@H]([C@@H](C)CC)C(=O)N(C)CC(=O)N(C)[C@H]2C/C=C\CCN(C2=O)[C@@H](Cc2ccc(C(F)(F)F)cc2)C(=O)N(C)CC(=O)N[C@@H](CCc2ccc(C(F)(F)F)c(OC)c2)C(=O)N2C[C@H](OCC)C[C@H]2C(=O)NC2(CCC2)C(=O)N(C)[C@@H](C2CCCC2)C(=O)N(C)[C@H](C(=O)N(C)CC)CC(=O)N1C [PP2840] | A (a compound having 10 or more and less than 20 is denoted as A) | A (a compound having 10 or more and less than 20 is denoted as A)
CCCC[C@H]1C(=O)N[C@@H]([C@@H](C)CC)C(=O)N(C)CC(=O)N(C)[C@H]2C/C=C\CCN(C2=O)[C@@H](Cc2ccc(C(F)(F)F)cc2)C(=O)N(C)CC(=O)N[C@@H](CCc2ccc(C(F)(F)F)c(Cl)c2)C(=O)N2C[C@H](OCC)C[C@H]2C(=O)NC2(CCC2)C(=O)N(C)[C@@H](C2CCCC2)C(=O)N(C)[C@H](C(=O)N(C)CC)CC(=O)N1C [PP2841] | A (a compound having 10 or more and less than 20 is denoted as A) | A (a compound having 10 or more and less than 20 is denoted as A)
CCO[C@@H]1C[C@H]2C(=O)NC3(CCC3)C(=O)N(C)[C@@H](C3CCCC3)C(=O)N(C)[C@H](C(=O)N(C)C)CC(=O)N(C)[C@@H](CC3CCCC3)C(=O)N[C@@H]([C@@H](C)CC)C(=O)N(C)CC(=O)N(C)[C@H]3C/C=C\CCN(C3=O)[C@@H](Cc3ccc(C(F)(F)F)cc3)C(=O)N(C)CC(=O)N[C@@H](CCc3ccc(C(F)(F)F)c(Cl)c3)C(=O)N2C1 [PP2842] | A (a compound having 10 or more and less than 20 is denoted as A) | B (a compound having 3 or more and less than 10 is denoted as B)
C#CC[C@H]1C(=O)N[C@@H]([C@@H](C)CC)C(=O)N(C)CC(=O)N(C)[C@H]2C/C=C\CCN(C2=O)[C@@H](Cc2ccc(C(F)(F)F)cc2)C(=O)N(C)CC(=O)N[C@@H](CCc2ccc(Cl)c(Cl)c2)C(=O)N2C[C@H](OCC)C[C@H]2C(=O)NC2(CC(C)(C)C2)C(=O)N(C)[C@@H](C2CCCC2)C(=O)N(C)[C@H](C(=O)N(C)CC)CC(=O)N1C [PP2843] | A (a compound having 10 or more and less than 20 is denoted as A) | A (a compound having 10 or more and less than 20 is denoted as A)
C#CC[C@H]1C(=O)N[C@@H]([C@@H](C)CC)C(=O)N(C)CC(=O)N(C)[C@H]2C/C=C\CCN(C2=O)[C@@H](Cc2ccc(C(F)(F)F)cc2)C(=O)N(C)CC(=O)N[C@@H](CCc2ccc(C(F)(F)F)c(Cl)c2)C(=O)N2C[C@H](OCC)C[C@H]2C(=O)NC2(CC(C)(C)C2)C(=O)N(C)[C@@H](C2CCCC2)C(=O)N(C)[C@H](C(=O)N(C)CC)CC(=O)N1C [PP2844] | A (a compound having 10 or more and less than 20 is denoted as A) | A (a compound having 10 or more and less than 20 is denoted as A)
CCO[C@@H]1C[C@H]2C(=O)NC3(CCC3)C(=O)N(C)[C@@H](C3CCCC3)C(=O)N(C)[C@H](C(=O)N(C)CC)CC(=O)N(C)[C@@H](CC(C)C)C(=O)N[C@@H]([C@@H](C)CC)C(=O)N(C)CC(=O)N(C)[C@H]3C/C=C\CCN(C3=O)[C@@H](Cc3ccc(C(F)(F)F)cc3)C(=O)N(C)CC(=O)N[C@@H](CCc3ccc(Cl)c(Cl)c3)C(=O)N2C1 [PP2845] | AA (a compound having 20 or more is denoted as AA) | A (a compound having 10 or more and less than 20 is denoted as A)
CCO[C@@H]1C[C@H]2C(=O)NC3(CCC3)C(=O)N(C)[C@@H](C3CCCC3)C(=O)N(C)[C@H](C(=O)N(C)CC)CC(=O)N(C)[C@@H](CC(C)C)C(=O)N[C@@H]([C@@H](C)CC)C(=O)N(C)CC(=O)N(C)[C@H]3C/C=C\CCN(C3=O)[C@@H](Cc3ccc(C(F)(F)F)cc3)C(=O)N(C)CC(=O)N[C@@H](CCc3ccc(C(F)(F)F)c(OC)c3)C(=O)N2C1 [PP2846] | AA (a compound having 20 or more is denoted as AA) | A (a compound having 10 or more and less than 20 is denoted as A)

Reference: patent US20250230193A1, “CYCLIC COMPOUND HAVING SELECTIVE KRAS INHIBITORY EFFECT ON HRAS AND NRAS” (CHUGAI SEIYAKU KABUSHIKI KAISHA, priority 2022, published 2025)
